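Five concentrations, 48 hours, 96-well plates. GI50 = concentration required for 50% inhibition of growth. Definition used: TGI = concentration required for complete inhibition of growth.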
How the values were obtained:
Test in all cases: inhibition of tumour cell growth, NCI panel, 48 h; in the data active = GI50 below about 0.43 µM; inactive = the rest
[1] = system: SN12C renal
[2] = system: MCF7 breast
[3] = system: ACHN renal
[4] = system: HOP-92 NSCLC
[5] = system: 786-0 renal
[6] = system: OVCAR-4 ovarian
[7] = system: PC-3 prostate
[8] = system: NCI-H226 lung
[9] = system: KM12 colon
[10] = system: BT-549 breast
[11] = system: SK-MEL-2 melanoma
[12] = system: IGROV1 ovarian
[13] = system: COLO 205 colon
[14] = system: NCI-H460 lung
[15] = system: MDA-MB-231 breast
[16] = system: MALME-3M melanoma
[17] = system: SR leukemia
[18] = system: UACC-257 melanoma
[19] = system: T-47D breast
[20] = system: HT29 colon
[21] = system: UO-31 renal
[22] = system: OVCAR-3 ovarian
[23] = system: NCI/ADR-RES ovarian
[24] = system: OVCAR-5 ovarian
[25] = system: SF-539 CNS
[26] = system: HL-60(TB) leukemia
[27] = system: U251 CNS
[28] = system: A549 NSCLC
[29] = system: SK-OV-3 ovarian
[30] = system: SF-268 CNS
[31] = system: UACC-62 melanoma
[32] = system: SNB-19 CNS
[33] = system: HOP-62 NSCLC
[34] = system: DU-145 prostate
[35] = system: HS 578T breast
[36] = system: HCT-116 colon
[37] = system: NCI-H522 lung
[38] = system: SNB-75 CNS
[39] = system: NCI-H23 lung
[40] = system: TK-10 renal
[41] = system: OVCAR-8 ovarian
[42] = system: A498 renal
[43] = system: SK-MEL-28 melanoma
[44] = system: RXF 393 renal
[45] = system: SF-295 CNS
[46] = system: SW-620 colon

CC(C)(C)c1cc(-n2c(-c3ccc(Cl)cc3)nc3cc(C(=O)Nc4ccc(Cl)cc4)ccc32)n[nH]1
inactive: GI50 [1] 5.82 µM | GI50 [2] 3.93 µM | GI50 [3] 5.18 µM | GI50 [4] 1.65 µM | GI50 [5] 6.18 µM | GI50 [6] 6.11 µM | GI50 [7] 3.29 µM | GI50 [8] 10.4 µM | GI50 [9] 2.76 µM | GI50 [10] 5.75 µM | GI50 [11] 2.89 µM | GI50 [12] 5.65 µM | GI50 [13] 4.71 µM | GI50 [14] 3.57 µM | GI50 [15] 23.7 µM | GI50 [16] 5.29 µM | GI50 [17] > 100 µM | GI50 [18] 7.92 µM | GI50 [19] 3.72 µM | GI50 [20] > 100 µM | GI50 [21] 2.69 µM | GI50 [22] 3.63 µM | GI50 [23] 4.17 µM | GI50 [24] > 100 µM | GI50 [25] 28 µM | GI50 [26] 3.18 µM | GI50 [27] 6.63 µM | GI50 [28] 3.71 µM | GI50 [29] 21.6 µM | GI50 [30] 9.03 µM | GI50 [31] 2.75 µM | GI50 [32] 4.1 µM | GI50 [33] 14.1 µM | GI50 [34] 8.5 µM | GI50 [35] 7.91 µM | GI50 [36] 3.84 µM | GI50 [37] 3.9 µM | GI50 [38] 7.08 µM | GI50 [39] 4.86 µM | GI50 [40] 3.66 µM | GI50 [41] 9.03 µM | GI50 [42] 1.99 µM | GI50 [43] 64.2 µM | GI50 [44] 8.57 µM | GI50 [45] 2.93 µM
66.4 µM: TGI [29]
23.2 µM: TGI [22]
> 100 µM: TGI [1] | TGI [2] | TGI [3] | TGI [5] | TGI [6] | TGI [7] | TGI [8] | TGI [9] | TGI [10] | TGI [12] | TGI [13] | TGI [14] | TGI [15] | TGI [16] | TGI [17] | TGI [18] | TGI [19] | TGI [20] | TGI [21] | TGI [23] | TGI [24] | TGI [25] | TGI [26] | TGI [27] | TGI [28] | TGI [30] | TGI [31] | TGI [32] | TGI [34] | TGI [36] | TGI [39] | TGI [40] | TGI [41] | TGI [42] | TGI [43] | TGI [45]
36.9 µM: TGI [33]
63.6 µM: TGI [44]
26.4 µM: TGI [38]
94.8 µM: TGI [37]
93 µM: TGI [35]
6.51 µM: TGI [4]
9.58 µM: TGI [11]

Fc1ccc2c(c1)c(-c1nc(-c3c[nH]c4ncccc34)cs1)cn2CCCCN1CCCCC1
3.47 µM: TGI [14]
3.31 µM: TGI [28]
3.21 µM: TGI [34]
2.48 µM: TGI [4]
3.1 µM: TGI [3]
2.57 µM: TGI [21]
3.02 µM: TGI [25]
3.14 µM: TGI [29]
3.32 µM: TGI [43]
inactive: GI50 [3] 1.67 µM | GI50 [4] 1.16 µM | GI50 [5] 1.62 µM | GI50 [7] 1.49 µM | GI50 [46] 1.74 µM | GI50 [14] 1.81 µM | GI50 [15] 1.61 µM | GI50 [18] 1.76 µM | GI50 [21] 1.23 µM | GI50 [22] 1.75 µM | GI50 [25] 1.61 µM | GI50 [28] 1.77 µM | GI50 [29] 1.72 µM | GI50 [30] 1.63 µM | GI50 [33] 1.53 µM | GI50 [34] 1.76 µM | GI50 [40] 2.3 µM | GI50 [42] 1.51 µM | GI50 [43] 1.78 µM
3.89 µM: TGI [40]
3.2 µM: TGI [22]
3.24 µM: TGI [46]
3.07 µM: TGI [5]
3.04 µM: TGI [15]
3.05 µM: TGI [42]
3.33 µM: TGI [18]
2.89 µM: TGI [7]
3.22 µM: TGI [30]
3.01 µM: TGI [33]

Source: PubChem BioAssay (NCI)
